Measured values taken from the kinase profiling compilation of Christmann-Franck et al. (2016).

What was measured:
Assay in all cases: KINOMEscan competition binding
Conditions in all cases: compound 1.0 µM
CDKL2 (human) = CDKL2 (human) (UniProt Q92772)
MYO3B (human) = MYO3B (human) (UniProt Q8WXR4)
STK32B (human) = STK32B (human) (UniProt Q9NY57)
MAPK13 (human) = MAPK13 (human) (UniProt O15264)
PIM3 (human) = PIM3 (human) (UniProt Q86V86)
PAK4 (human) = PAK4 (human) (UniProt O96013)
MAP2K6 (human) = MAP2K6 (human) (UniProt P52564)
PRKCD (human) = PRKCD (human) (UniProt Q05655)
FGFR4 (human) = FGFR4 (human) (UniProt P22455)
LATS1 (human) = LATS1 (human) (UniProt O95835)
SIK3 (human) = SIK3 (human) (UniProt Q9Y2K2)
IKBKB (human) = IKBKB (human) (UniProt O14920)
YES1 (human) = YES1 (human) (UniProt P07947)
PHKG1 (human) = PHKG1 (human) (UniProt Q16816)
NTRK3 (human) = NTRK3 (human) (UniProt Q16288)
PRKG2 (human) = PRKG2 (human) (UniProt Q13237)
STK32C (human) = STK32C (human) (UniProt Q86UX6)
CDK19 (human) = CDK19 (human) (UniProt Q9BWU1)
MATK (human) = MATK (human) (UniProt P42679)
AKT1 (human) = AKT1 (human) (UniProt P31749)
PHKG2 (human) = PHKG2 (human) (UniProt P15735)
LIMK1 (human) = LIMK1 (human) (UniProt P53667)
STK35 (human) = STK35 (human) (UniProt Q8TDR2)
[1] = tested on: KIT (human), P10721 [D816V]
GRK1 (human) = GRK1 (human) (UniProt Q15835)
MAPK7 (human) = MAPK7 (human) (UniProt Q13164)
EPHA5 (human) = EPHA5 (human) (UniProt P54756)
FGFR1 (human) = FGFR1 (human) (UniProt P11362)
HIPK2 (human) = HIPK2 (human) (UniProt Q9H2X6)
[2] = tested on: BRAF (human), P15056 [V600E]
MAP2K7 (human) = MAP2K7 (human) (UniProt O14733)
MELK (human) = MELK (human) (UniProt Q14680)
BMX (human) = BMX (human) (UniProt P51813)
DSTYK (human) = DSTYK (human) (UniProt Q6XUX3)
NTRK2 (human) = NTRK2 (human) (UniProt Q16620)
RPS6KA6 KD2 (human) = RPS6KA6 KD2 (human) (UniProt Q9UK32)
PIK3CD (human) = PIK3CD (human) (UniProt O00329)
CDK13 (human) = CDK13 (human) (UniProt Q14004)
IRAK4 (human) = IRAK4 (human) (UniProt Q9NWZ3)
MST1R (human) = MST1R (human) (UniProt Q04912)
PTK2B (human) = PTK2B (human) (UniProt Q14289)
LATS2 (human) = LATS2 (human) (UniProt Q9NRM7)
MARK3 (human) = MARK3 (human) (UniProt P27448)

NTRK2 (human), sequence (Q16620 whole entry, looked up): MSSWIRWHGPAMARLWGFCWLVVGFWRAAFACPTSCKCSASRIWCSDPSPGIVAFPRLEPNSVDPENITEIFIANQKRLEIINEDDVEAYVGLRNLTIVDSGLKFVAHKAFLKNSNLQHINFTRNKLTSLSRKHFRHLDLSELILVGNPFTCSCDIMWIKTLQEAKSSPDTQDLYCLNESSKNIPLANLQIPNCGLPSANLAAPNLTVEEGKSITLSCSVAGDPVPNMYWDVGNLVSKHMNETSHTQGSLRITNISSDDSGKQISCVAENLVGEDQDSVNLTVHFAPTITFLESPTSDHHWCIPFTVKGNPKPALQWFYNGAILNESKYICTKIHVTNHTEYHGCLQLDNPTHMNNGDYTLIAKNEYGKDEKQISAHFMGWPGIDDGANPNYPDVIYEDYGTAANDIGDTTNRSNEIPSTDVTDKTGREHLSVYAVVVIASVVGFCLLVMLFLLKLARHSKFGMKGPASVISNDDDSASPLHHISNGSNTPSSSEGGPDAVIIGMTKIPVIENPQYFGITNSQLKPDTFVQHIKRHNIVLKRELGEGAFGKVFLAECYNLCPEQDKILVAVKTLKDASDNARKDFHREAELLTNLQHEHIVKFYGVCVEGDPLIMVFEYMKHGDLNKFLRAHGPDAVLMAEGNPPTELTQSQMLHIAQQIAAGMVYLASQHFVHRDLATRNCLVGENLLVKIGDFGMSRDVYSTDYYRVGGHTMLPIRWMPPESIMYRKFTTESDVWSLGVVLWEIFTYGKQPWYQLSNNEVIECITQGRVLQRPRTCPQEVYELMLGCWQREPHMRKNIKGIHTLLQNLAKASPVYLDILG
MAP2K6 (human), sequence (P52564 whole entry, looked up): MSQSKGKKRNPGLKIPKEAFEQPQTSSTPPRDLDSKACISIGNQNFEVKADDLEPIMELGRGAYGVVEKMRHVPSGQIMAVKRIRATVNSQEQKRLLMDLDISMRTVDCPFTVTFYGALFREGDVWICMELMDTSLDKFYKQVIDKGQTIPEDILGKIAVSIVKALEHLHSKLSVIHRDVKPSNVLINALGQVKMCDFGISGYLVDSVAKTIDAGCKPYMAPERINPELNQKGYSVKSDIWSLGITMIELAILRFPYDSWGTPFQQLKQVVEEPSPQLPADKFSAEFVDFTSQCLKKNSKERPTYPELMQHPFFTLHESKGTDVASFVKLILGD
YES1 (human), sequence (P07947 whole entry, looked up): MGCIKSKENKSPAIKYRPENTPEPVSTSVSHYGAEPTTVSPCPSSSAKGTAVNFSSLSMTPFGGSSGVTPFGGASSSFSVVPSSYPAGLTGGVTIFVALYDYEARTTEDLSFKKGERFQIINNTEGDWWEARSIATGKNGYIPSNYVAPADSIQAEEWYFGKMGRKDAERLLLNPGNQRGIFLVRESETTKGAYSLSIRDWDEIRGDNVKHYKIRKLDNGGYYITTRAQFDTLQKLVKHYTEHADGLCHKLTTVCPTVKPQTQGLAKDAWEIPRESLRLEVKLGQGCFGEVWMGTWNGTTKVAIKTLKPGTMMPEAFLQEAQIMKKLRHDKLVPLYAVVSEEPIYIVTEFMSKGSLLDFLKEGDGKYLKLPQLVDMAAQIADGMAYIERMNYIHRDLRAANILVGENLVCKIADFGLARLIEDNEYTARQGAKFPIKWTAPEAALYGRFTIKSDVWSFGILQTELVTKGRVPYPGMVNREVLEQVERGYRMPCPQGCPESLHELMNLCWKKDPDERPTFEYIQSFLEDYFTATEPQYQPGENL
STK35 (human), sequence (Q8TDR2 whole entry, looked up): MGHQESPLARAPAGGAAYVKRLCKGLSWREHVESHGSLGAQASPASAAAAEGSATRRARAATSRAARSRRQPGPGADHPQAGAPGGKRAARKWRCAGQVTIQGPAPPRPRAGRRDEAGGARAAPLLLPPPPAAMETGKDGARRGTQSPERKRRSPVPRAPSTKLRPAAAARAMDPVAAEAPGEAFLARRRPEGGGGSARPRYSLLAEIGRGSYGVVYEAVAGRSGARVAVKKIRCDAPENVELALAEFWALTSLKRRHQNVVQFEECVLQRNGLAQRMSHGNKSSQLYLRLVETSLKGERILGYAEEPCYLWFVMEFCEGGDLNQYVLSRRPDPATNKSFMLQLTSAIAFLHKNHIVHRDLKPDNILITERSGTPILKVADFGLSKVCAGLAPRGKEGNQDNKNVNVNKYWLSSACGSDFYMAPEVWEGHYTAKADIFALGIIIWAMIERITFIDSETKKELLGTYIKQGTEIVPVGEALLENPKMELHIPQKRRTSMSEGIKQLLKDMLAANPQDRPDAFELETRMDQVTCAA
STK32B (human), sequence (Q9NY57 whole entry, looked up): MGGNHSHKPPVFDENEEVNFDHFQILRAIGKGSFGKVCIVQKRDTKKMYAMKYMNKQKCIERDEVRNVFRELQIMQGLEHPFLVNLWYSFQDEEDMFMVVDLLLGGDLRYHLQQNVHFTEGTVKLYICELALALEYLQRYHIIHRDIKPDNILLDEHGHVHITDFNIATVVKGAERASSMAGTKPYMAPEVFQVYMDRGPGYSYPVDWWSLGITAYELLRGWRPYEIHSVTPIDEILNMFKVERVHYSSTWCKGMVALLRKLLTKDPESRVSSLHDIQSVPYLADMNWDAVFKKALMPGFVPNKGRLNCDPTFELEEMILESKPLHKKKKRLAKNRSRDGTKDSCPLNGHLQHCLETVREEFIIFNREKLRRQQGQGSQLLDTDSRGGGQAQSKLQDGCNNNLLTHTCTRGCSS
NTRK3 (human), sequence (Q16288 whole entry, looked up): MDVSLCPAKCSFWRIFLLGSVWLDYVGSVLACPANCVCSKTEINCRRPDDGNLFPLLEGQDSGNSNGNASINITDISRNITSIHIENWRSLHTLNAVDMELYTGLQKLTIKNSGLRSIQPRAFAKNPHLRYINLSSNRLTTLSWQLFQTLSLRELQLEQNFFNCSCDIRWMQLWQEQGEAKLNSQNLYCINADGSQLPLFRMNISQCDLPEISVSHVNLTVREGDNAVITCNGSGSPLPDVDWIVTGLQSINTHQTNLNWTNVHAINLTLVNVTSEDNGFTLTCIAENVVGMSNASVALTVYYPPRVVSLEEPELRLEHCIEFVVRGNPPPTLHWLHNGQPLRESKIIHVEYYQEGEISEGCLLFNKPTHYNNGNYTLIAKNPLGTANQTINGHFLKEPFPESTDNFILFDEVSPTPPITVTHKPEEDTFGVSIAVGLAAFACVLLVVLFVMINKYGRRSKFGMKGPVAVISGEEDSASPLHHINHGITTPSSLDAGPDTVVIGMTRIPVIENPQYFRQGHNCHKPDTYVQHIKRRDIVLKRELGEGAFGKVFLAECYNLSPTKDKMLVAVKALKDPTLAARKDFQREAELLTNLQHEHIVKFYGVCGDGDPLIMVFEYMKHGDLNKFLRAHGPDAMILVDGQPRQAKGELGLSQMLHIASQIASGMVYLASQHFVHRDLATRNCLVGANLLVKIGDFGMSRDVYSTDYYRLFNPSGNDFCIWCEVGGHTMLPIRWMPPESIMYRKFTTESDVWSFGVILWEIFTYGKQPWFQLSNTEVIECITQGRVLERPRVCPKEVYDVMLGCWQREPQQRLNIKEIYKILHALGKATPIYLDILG
MELK (human), sequence (Q14680 whole entry, looked up): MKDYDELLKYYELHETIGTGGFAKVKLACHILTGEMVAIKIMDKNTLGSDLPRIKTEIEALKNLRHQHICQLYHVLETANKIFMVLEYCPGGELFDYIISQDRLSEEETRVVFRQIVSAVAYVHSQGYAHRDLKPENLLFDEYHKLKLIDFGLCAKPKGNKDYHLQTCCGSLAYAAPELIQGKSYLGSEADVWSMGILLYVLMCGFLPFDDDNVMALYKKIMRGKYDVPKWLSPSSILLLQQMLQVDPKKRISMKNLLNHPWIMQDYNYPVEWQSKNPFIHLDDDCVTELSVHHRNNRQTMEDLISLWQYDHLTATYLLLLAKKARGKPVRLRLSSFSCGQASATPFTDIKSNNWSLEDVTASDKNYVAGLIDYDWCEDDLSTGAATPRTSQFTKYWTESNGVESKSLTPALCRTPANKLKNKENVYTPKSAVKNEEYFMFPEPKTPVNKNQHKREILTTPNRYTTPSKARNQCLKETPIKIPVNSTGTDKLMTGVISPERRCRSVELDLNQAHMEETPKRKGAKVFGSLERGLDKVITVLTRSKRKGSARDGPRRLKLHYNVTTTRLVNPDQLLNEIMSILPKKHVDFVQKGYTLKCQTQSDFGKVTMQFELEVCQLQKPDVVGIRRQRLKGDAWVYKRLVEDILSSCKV
IKBKB (human), sequence (O14920 whole entry, looked up): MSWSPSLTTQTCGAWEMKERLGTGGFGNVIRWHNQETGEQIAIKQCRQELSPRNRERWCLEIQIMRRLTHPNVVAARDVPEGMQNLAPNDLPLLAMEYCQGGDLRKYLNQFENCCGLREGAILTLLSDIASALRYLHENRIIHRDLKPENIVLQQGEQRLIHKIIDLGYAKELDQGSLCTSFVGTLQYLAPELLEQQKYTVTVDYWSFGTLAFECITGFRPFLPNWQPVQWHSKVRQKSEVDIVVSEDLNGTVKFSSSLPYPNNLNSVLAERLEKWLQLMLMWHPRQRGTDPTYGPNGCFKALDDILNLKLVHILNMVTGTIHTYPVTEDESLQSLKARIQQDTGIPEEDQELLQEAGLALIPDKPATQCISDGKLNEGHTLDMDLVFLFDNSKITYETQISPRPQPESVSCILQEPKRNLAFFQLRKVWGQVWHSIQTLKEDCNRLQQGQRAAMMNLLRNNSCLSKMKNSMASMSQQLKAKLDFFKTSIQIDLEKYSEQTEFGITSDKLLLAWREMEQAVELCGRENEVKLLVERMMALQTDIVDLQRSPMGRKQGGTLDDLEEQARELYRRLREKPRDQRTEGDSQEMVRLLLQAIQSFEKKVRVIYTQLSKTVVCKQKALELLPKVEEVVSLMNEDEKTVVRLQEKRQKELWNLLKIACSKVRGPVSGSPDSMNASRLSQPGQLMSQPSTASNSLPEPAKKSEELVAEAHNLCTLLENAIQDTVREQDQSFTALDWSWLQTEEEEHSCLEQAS

In the case of `Cc1cc(NC(=O)c2cccc(NC(=O)/C=C/CN(C)C)c2)ccc1Nc1nccc(-c2cccnc2)n1`, the kinase still bound, per cent of control (CDKL2 (human)) is reported as 82%, the kinase still bound, per cent of control (MYO3B (human)) is reported as 89% and the kinase still bound, per cent of control (STK32B (human)) is reported as 90%. It also gave a kinase still bound, per cent of control (MAPK13 (human)) of 100%, a kinase still bound, per cent of control (PIM3 (human)) of 56% and a kinase still bound, per cent of control (PAK4 (human)) of 100%. It also gave a kinase still bound, per cent of control (MAP2K6 (human)) of 95%, a kinase still bound, per cent of control (PRKCD (human)) of 100% and a kinase still bound, per cent of control (FGFR4 (human)) of 100%. It also gave a kinase still bound, per cent of control (LATS1 (human)) of 91%, a kinase still bound, per cent of control (SIK3 (human)) of 100% and a kinase still bound, per cent of control (IKBKB (human)) of 99%. The kinase still bound, per cent of control (YES1 (human)) was 86%, the kinase still bound, per cent of control (PHKG1 (human)) was 87% and the kinase still bound, per cent of control (NTRK3 (human)) was 79%. For the same compound, the kinase still bound, per cent of control (PRKG2 (human)) was 97%, the kinase still bound, per cent of control (STK32C (human)) was 95% and the kinase still bound, per cent of control (CDK19 (human)) was 62%. For the same compound, the kinase still bound, per cent of control (MATK (human)) was 81%, the kinase still bound, per cent of control (AKT1 (human)) was 100% and the kinase still bound, per cent of control (PHKG2 (human)) was 89%. For the same compound, the kinase still bound, per cent of control (LIMK1 (human)) was 74%, the kinase still bound, per cent of control (STK35 (human)) was 68% and the kinase still bound, per cent of control [1] was 54%. For the same compound, the kinase still bound, per cent of control (GRK1 (human)) was 100%, the kinase still bound, per cent of control (MAPK7 (human)) was 100% and the kinase still bound, per cent of control (EPHA5 (human)) was 100%. For the same compound, the kinase still bound, per cent of control (FGFR1 (human)) was 94%, the kinase still bound, per cent of control (HIPK2 (human)) was 71% and the kinase still bound, per cent of control [2] was 100%. The kinase still bound, per cent of control (MAP2K7 (human)) was 59%, the kinase still bound, per cent of control (MELK (human)) was 71% and the kinase still bound, per cent of control (BMX (human)) was 100%. For the same compound, the kinase still bound, per cent of control (DSTYK (human)) was 100%, the kinase still bound, per cent of control (NTRK2 (human)) was 96% and the kinase still bound, per cent of control (RPS6KA6 KD2 (human)) was 76%. The kinase still bound, per cent of control (PIK3CD (human)) was 95%, the kinase still bound, per cent of control (CDK13 (human)) was 100% and the kinase still bound, per cent of control (IRAK4 (human)) was 93%. The kinase still bound, per cent of control (MST1R (human)) was 100%, the kinase still bound, per cent of control (PTK2B (human)) was 87% and the kinase still bound, per cent of control (LATS2 (human)) was 74%. The kinase still bound, per cent of control (MARK3 (human)) was 100%.
Work on `CN(C)C/C=C/C(=O)Nc1cccc(C(=O)Nc2ccc(Nc3nccc(-c4cccnc4)n3)cc2)c1` yielded a kinase still bound, per cent of control (CDKL2 (human)) of 21%, a kinase still bound, per cent of control (MYO3B (human)) of 100% and a kinase still bound, per cent of control (STK32B (human)) of 100%. The kinase still bound, per cent of control (MAPK13 (human)) was 100%, the kinase still bound, per cent of control (PIM3 (human)) was 92% and the kinase still bound, per cent of control (PAK4 (human)) was 79%. The kinase still bound, per cent of control (MAP2K6 (human)) was 53%, the kinase still bound, per cent of control (PRKCD (human)) was 76% and the kinase still bound, per cent of control (FGFR4 (human)) was 100%. For the same compound, the kinase still bound, per cent of control (LATS1 (human)) was 100%, the kinase still bound, per cent of control (SIK3 (human)) was 100% and the kinase still bound, per cent of control (IKBKB (human)) was 48%. It also gave a kinase still bound, per cent of control (YES1 (human)) of 98%, a kinase still bound, per cent of control (PHKG1 (human)) of 91% and a kinase still bound, per cent of control (NTRK3 (human)) of 97%. For the same compound, the kinase still bound, per cent of control (PRKG2 (human)) was 82%, the kinase still bound, per cent of control (STK32C (human)) was 98% and the kinase still bound, per cent of control (CDK19 (human)) was 58%. It also gave a kinase still bound, per cent of control (MATK (human)) of 99%, a kinase still bound, per cent of control (AKT1 (human)) of 87% and a kinase still bound, per cent of control (PHKG2 (human)) of 64%. It also gave a kinase still bound, per cent of control (LIMK1 (human)) of 71%, a kinase still bound, per cent of control (STK35 (human)) of 67% and a kinase still bound, per cent of control [1] of 16%. For the same compound, the kinase still bound, per cent of control (GRK1 (human)) was 100%, the kinase still bound, per cent of control (MAPK7 (human)) was 100% and the kinase still bound, per cent of control (EPHA5 (human)) was 96%. It also gave a kinase still bound, per cent of control (FGFR1 (human)) of 90%, a kinase still bound, per cent of control (HIPK2 (human)) of 9.2% and a kinase still bound, per cent of control [2] of 60%. The kinase still bound, per cent of control (MAP2K7 (human)) was 100%, the kinase still bound, per cent of control (MELK (human)) was 30% and the kinase still bound, per cent of control (BMX (human)) was 70%. It also gave a kinase still bound, per cent of control (DSTYK (human)) of 100%, a kinase still bound, per cent of control (NTRK2 (human)) of 94% and a kinase still bound, per cent of control (RPS6KA6 KD2 (human)) of 100%. The kinase still bound, per cent of control (PIK3CD (human)) was 100%, the kinase still bound, per cent of control (CDK13 (human)) was 43% and the kinase still bound, per cent of control (IRAK4 (human)) was 100%. It also gave a kinase still bound, per cent of control (MST1R (human)) of 100%, a kinase still bound, per cent of control (PTK2B (human)) of 100% and a kinase still bound, per cent of control (LATS2 (human)) of 73%. For the same compound, the kinase still bound, per cent of control (MARK3 (human)) was 100%.
